{
  "source": "patent US20250163522A1",
  "about": "“METHODS FOR PRESERVING HEALTHY INTESTINAL MICROBIOME DURING GROWTH PROMOTER ADMINSTRATION” (BIOMEDIT, LLC, priority 2022, published 2025)",
  "assay_type_in_all_cases": "in vivo, chickens (Gallus gallus)",
  "key": {"[1]": {"system": "Ross 708 male broilers", "test": "Clinical study of in-feed AGPs in broilers: weight gain and feed conversion", "settings": "in-feed: 50 g/ton BMD, 20 g/ton avilamycin, 16.5 g/ton virginiamycin, 70 g/ton narasin; 35 days", "excerpt": "500 healthy Ross 708 male broilers sourced from a commercial hatchery were used in the experiment. […] Birds were individually tagged with a unique identifier and were randomly assigned to one of 25 floor pens (20 animals per pen). Groups of 5 pens were assigned to each of 5 different treatments. The 5 treatments included: 1) control birds fed least-cost diets as follows: A starter diet was fed from days 0 to 14 of the study, followed by a grower diet (14-28d) and a finisher diet (28-35d). 2) Birds fed the above diets supplemented with 50 g/ton BMD. 3) Supplemented with 20 g/ton avilamycin. 4) Supplemented with 16.5 g/ton Virginiamycin. And 5) supplemented with 70 g/ton narasin. Birds were raised for 35 days in a barn on top of used litter.\nIndividual body weights were collected on days 0, 7, 21 and 35. Pen weights were collected on days 14 and 28. Feed weigh backs for each pen were done on days 7, 14, 21, 28 and 35 of the study. Average bird weights and feed intake per pen were used to calculate weekly values of average daily gain and feed conversion ratios. Weekly values were compared between treatments using the Mann Whitney U test. On days 7, 21 and 35 three birds per pen were randomly selected and euthanized for the collection of cecal contents and blood. Blood was collected via wing vein venipuncture, except for birds that were too small, in which cases direct heart puncture was used. In both cases, blood was collected into vacutainer tubes and centrifuged to obtain serum. Cecal samples were collected by aseptically squeezing the cecum content into a sterile tube. Cecal samples were placed on dry ice immediately after collection. All samples were stored at −80° C. until processing."}, "[2]": {"system": "AMR genes in the cecum microbiome", "test": "AMR gene abundance analysis (AMR++ pipeline) of cecal microbiome", "settings": "day 35 cecum; for AMR gene classes changed compared to controls: Mann-Whitney U p-value<0.05; for total number of different AMR genes detected: compared to control; for total AMR gene abundance compared to control: RPKM", "protocol": "AMR gene abundances per sample were determined using the AMR++ pipeline (Lakin, S. M. et al., Nucleic Acids Res 45, D574-D580 (2017)) (v. 2.0.2) starting from the raw metagenomics sequences and using the MegaRes (v. 2.0.0) database. Only genes involved in drug resistance were considered. The AMR gene counts per sample obtained from AMR++ were expressed in unites of reads per kilobase per million reads (RPKM) based on the corresponding gene lengths from the MegaRes database. RPKM values across treatments were compared using the Mann-Whitney U test."}, "[3]": {"system": "cecal microbiome", "test": "16S rRNA amplicon profiling of cecal microbiome of AGP treated broilers", "settings": "days 21 and 35", "protocol": "Total DNA from frozen cecal content samples were extracted using the Lysis and Purity kit (Shoreline Biome, Farmington, CT) following the manufacturer's protocol. The resulting DNA was used for library preparation with the Shoreline Biome V4 16S DNA Purification and Library Prep Kit (Shoreline Biome, Farmington, CT). PCR amplification of the V4 region of the 16S rRNA gene was performed using the 515F (5′[…]) and 806R (5′-[…]) primers. The resulting amplicons were then sequenced using 2×250 bp paired-end kits on the Illumina MiSeq platform.\nPaired raw reads were processed with cutadapt (v. 2.5) (Martin, M. Cutadapt 2011 17, 3, doi: 10.14806/ej. 17.1.200 (2011)) followed by DADA2 (v.1.12.1) (Callahan et al., Nat Methods 13, 581-581 (2016)) to generate a matrix of read counts per sample at the level of amplicon sequence variants (ASVs). […] Reads assigned to the Vibrionaceae family were removed from the analysis, these correspond to a small amount (˜1% relative abundance) of Vibrio harveyii that was spiked in some of the samples. The mean sequencing depth after filtering was 43,955 reads per sample (standard deviation=12,391). The Chao, Simpson, and Shannon measures of alpha diversity were calculated from the matrix of raw counts using the scikit-bio (v. 0.5.6) python package and compared across treatments at each sampling time using the Mann-Whitney U test. […]"}, "[4]": {"system": "cecal microbiome", "test": "Shotgun metagenomics (functional/taxonomic profiles, GSEA) of cecal microbiome, day 35 broilers", "settings": "for functional processes enriched in cecal microbiome relative to controls (GSEA): day 35 cecal samples", "protocol": "74 frozen cecal samples from day 35 birds were sent to CosmosID (Rockville, MD) for shotgun metagenomics sequencing. DNA was extracted using the ZymoBIOMICS DNA Miniprep Kit (ZymoBIOMICS, Irvine, CA) according to the manufacturers protocol. The isolated DNA was quantified by Qbit (ThermoFisher, Coon Rapids, MN). DNA libraries were prepared using the Illumina Nextera XT library preparation kit (Illumina, San Diego, CA), with a modified protocol. Libraries were then sequenced on an Illumina HiSeq platform 2×150 bp.\nReads were trimmed and Illumina adapters removed using Trimmomatic (v 0.39) (Bolger et al., Bioinformatics 30, 2114-2120 (2014)) with options SLIDINGWINDOW:5:20 LEADING:3 TRAILING:3. Host reads (Gallus gallus, GenBank assembly GCA_000002315) and spike-in reads from Vibrio harveyii (ATCC 14126) were removed using Bowtie2 (v. 2.3.5.1) (Langmead et al., Nat Methods 9, 357-359 (2012)).\nTaxonomic profiling of individual reads was carried out using Kaiju (v. 1.7.3) (Menzel et al., Nat Commun 7, 11257 (2016)) with the nr_euk database. Kaiju outputs were summarized for each read as the number of bases aligned to proteins in the reference database. In cases of individual reads mapping to more than one taxonomic group, the number of bases assigned to each taxon was calculated as the alignment length (in base pairs) multiplied by the fraction of bases assigned unambiguously to said taxon out of all the taxa to which the read mapped. The numbers of assigned bases per read were used to estimate species-level relative abundances using metametamerge (v. 1.1) (Piro, V. C., et al., Microbiome 5, 101 (2017).) taking into account the average coding length per species in the nr_euk database.\nFunctional profiling was done by first assembling the reads from each sample into contigs using Spades (v. 3.13.1, option --meta) (Nurk, S. et al., Genome Res 27, 824-834 (2017)), with default parameters, followed by protein prediction with Prokka (v. 1.14.5) (Seemann, T. Prokka: Bioinformatics 30, 2068-2069 (2014).). Predicted protein sequences were aligned to a reference database and using Diamond (v. 0.9.30) (Buchfink, B. et al. Nat Methods 18, 366-368 (2021)) and annotated based on the function assigned to the top hit in the database. To avoid misannotations, (Plata, G. et al. Nat Chem Biol 8, 848-854 (2012)) the inventors only considered hits with at least 70% identity and 70% query coverage. The reference database was built starting from 46,181 complete bacterial genomes downloaded from the PATRIC (Davis, J. J. et al. Nucleic Acids Res 48, D606-D612 (2020)) database representing at most 10 genomes per species from ˜400 taxonomic families including those most frequently observed in broiler microbiomes. To speed up functional annotations, protein sequences within each family in the database were clustered at 90% sequence identity using CD-HIT (v. 4.8.1) (Huang, Y. et al. Bioinformatics 26, 680-682 (2010)) and the longest sequence from each cluster was kept for the diamond search.\nTo quantify the abundance of each function per sample, reads were mapped to the corresponding contigs using BWA (v. 0.7.17) (Li, H. & Durbin, R. Bioinformatics 25, 1754-1760 (2009)), and reads mapping to each predicted protein were counted with HTseq (v. 0.11.3) (Anders, S. et al. Bioinformatics 31, 166-169 (2015)). Read counts per RAST functional role were TPM normalized based on the Prokka protein lengths (Zhao, S. et. al. RNA 26, 903-909 (2020)) and expressed in units of mean copy numbers per genome by calculating a normalization factor such that the median abundance of a set of universal-single copy bacterial genes (Creevey, C. J. et al. PLOS One 6, e22099 (2011)) was set to 1 (Manor, O. & Borenstein, E. Genome Biology 16, 53 (2015)). A similar procedure was used to produce a copy-number normalized matrix of functional roles across samples stratified by the bacterial genera of the protein hits used to transfer functional annotations. […]"}},
  "note": "“Also recorded” adds a separate entry of the source.",
  "data": [
    {"molecule": "COC[C@H]1O[C@@H](OC2OC[C@@H]3O[C@]4(O[C@H]3[C@H]2OC(=O)C(C)C)O[C@H](C)[C@@](O)(C(C)=O)[C@@H]2OCO[C@H]24)[C@@H](OC)[C@@H](O)[C@@H]1O[C@@H]1O[C@H](C)[C@H](OC)[C@H](O[C@H]2C[C@@]3(C)OC4(C[C@@H](O)[C@H](O[C@H]5C[C@@H](O)[C@H](OC(=O)c6c(C)c(Cl)c(O)c(Cl)c6OC)[C@@H](C)O5)[C@@H](C)O4)O[C@@H]3[C@@H](C)O2)[C@H]1O", "note": "(stereo partly drawn) [avilamycin]", "values": [
      {"measurement": "impact on bird performance", "setting": "[1]", "result": "smallest effects on performance"},
      {"measurement": "effect on AMR gene abundance profiles", "setting": "[2]", "result": "minor"},
      {"measurement": "AMR gene classes changed compared to controls", "setting": "[2]", "result": "reduced the abundance of genes associated with resistance to nucleosides and macrolides"},
      {"measurement": "total number of different AMR genes detected", "setting": "[2]", "result": "higher"},
      {"measurement": "similarity of 16S cecal microbiome composition to control samples (ANOSIM R score)", "setting": "[3]", "result": "higher similarity"},
      {"measurement": "functional processes enriched in cecal microbiome relative to controls (GSEA)", "setting": "[4]", "result": "protein synthesis and the Entner-Doudoroff pathway; also recorded: methionine metabolism, glycolysis, sporulation, and isoprenoid synthesis"}
    ]},
    {"molecule": "Bacitracin methylene disalicylate [BMD]", "values": [
      {"measurement": "impact on bird performance", "setting": "[1]", "result": "smallest effects on performance"},
      {"measurement": "effect on AMR gene abundance profiles", "setting": "[2]", "result": "minor"},
      {"measurement": "total AMR gene abundance compared to control", "setting": "[2]", "result": "significant increase"},
      {"measurement": "similarity of 16S cecal microbiome composition to control samples (ANOSIM R score)", "setting": "[3]", "result": "higher similarity"},
      {"measurement": "functional processes enriched in cecal microbiome relative to controls (GSEA)", "setting": "[4]", "result": "biotin synthesis; also recorded: propanediol utilization, molybdenum-containing cofactor synthesis and CO2 fixation via the Wood-Ljungdahl pathway; also recorded: protein synthesis and the Entner-Doudoroff pathway"}
    ]},
    {"molecule": "virginiamycin", "values": [
      {"measurement": "impact on bird performance", "setting": "[1]", "result": "increased performance compared to controls"},
      {"measurement": "effect on AMR gene abundance profiles", "setting": "[2]", "result": "significantly different AMR gene abundance profiles"},
      {"measurement": "AMR gene classes changed compared to controls", "setting": "[2]", "result": "enriched (Mann-Whitney U p-value<0.05) for genes involved in resistance to multiple drugs"},
      {"measurement": "total AMR gene abundance compared to control", "setting": "[2]", "result": "significant increase"},
      {"measurement": "total number of different AMR genes detected", "setting": "[2]", "result": "higher"},
      {"measurement": "Salmonella and Escherichia relative abundance in cecum", "setting": "[4]; day 35", "result": "~50", "unit": "%"},
      {"measurement": "functional processes enriched in cecal microbiome relative to controls (GSEA)", "setting": "[4]", "result": "betaine and pyridoxine biosynthesis, stress response, bacterial secretion systems, antimicrobial resistance (AMR), and biosynthesis of Gram-negative cell wall components"}
    ]}
  ]
}
